Measurements as given in patent US11236047B2 (ASTEX THERAPEUTICS LIMITED, priority 2017, dated 2022).
Like-named read-outs stand apart in the source and are kept apart here.

System: SJSA-1 cells
Experiment: Protocol B: SJSA-1 CellTiter-Glo luminescent cell viability assay
[1] = Homo sapiens, SJSA-1, read-out: SJSA1 IC50 (μM), Protocol B, SJSA-1
[2] = read-out: SJSA1 IC50 (μM) (Protocol B), SJSA-1, Protocol B
[3] = Homo sapiens, SJSA-1, read-out: SJSA1 IC50 (μM) (Protocol B), SJSA-1, Protocol B
[4] = read-out: SJSA1 IC50, Protocol B, SJSA-1

Structure (SMILES) | IC50 [2] [µM] | IC50 [3] [µM] | also measured
CO[C@]1(c2ccc(Cl)cc2)c2c(F)cc(C(C)(O)C3CN(C(=O)N(C)C)C3)cc2C(=O)N1Cc1ccc(C#N)cn1 (stereo partly drawn) [Example 393, 3-{1-[(1R)-1-(4-chlorophenyl)-2-[(5-cyanopyridin-2-yl)methyl]-7-fluoro-1-methoxy-3-oxo-2,3-dihydro-1H-isoindol-5-yl]-1-hydroxyethyl}-N,N-dimethylazetidine-1-carboxamide] |  |  | IC50 [1]: 0.79 µM
Cn1cc(C(C)(O)c2cc(F)c3c(c2)C(=O)N(Cc2ccc(C#N)cn2)[C@@]3(O[C@H]2C[C@@H](O)C2)c2ccc(Cl)cc2)cn1 (single isomer, unassigned) [Example 355, 6-{[1-(4-chlorophenyl)-7-fluoro-5-[1-hydroxy-1-(1-methyl-1H-pyrazol-4-yl)ethyl]-3-oxo-1-[cis-3-hydroxycyclobutoxy]-2,3-dihydro-1H-isoindol-2-yl]methyl}pyridine-3-carbonitrile] | 4.7 |  | 
Cn1cc(C(C)(O)c2cc(F)c3c(c2)C(=O)N(Cc2ncc(Cl)cn2)[C@@]3(OCC2(C(N)=O)CC2)c2ccc(Cl)cc2)cn1 (stereo partly drawn) [Example 214, 1-({[(1R)-1-(4-chlorophenyl)-2-[(5-chloropyrimidin-2-yl)methyl]-7-fluoro-5-[1-hydroxy-1-(1-methyl-1H-pyrazol-4-yl)ethyl]-3-oxo-2,3-dihydro-1H-isoindol-1-yl]oxy}methyl)cyclopropane-1-carboxamide] |  | 0.22 | 
CC(O)(c1cc(F)c2c(c1)C(=O)N(Cc1ccc(Cl)cn1)[C@@]2(OCC1(C(N)=O)CC1)c1ccc(Cl)cc1)c1cscn1 (single isomer, unassigned) [Example 193] |  | 0.14 | 
CC(O)(CN1CCCC1)c1cc(F)c2c(c1)C(=O)N(Cc1ccc(C#N)cn1)[C@@]2(OCC1(C#N)CC1)c1ccc(Cl)cc1 (single isomer, unassigned) [Example 277] | 1.2 |  | 
Cn1cc(C(C)(O)c2cc(F)c3c(c2)C(=O)N(Cc2ncc(Cl)cn2)[C@@]3(OCC2(O)CC2)c2ccc(Cl)cc2)cn1 (single isomer, unassigned) [Example 204] | 0.94 |  | 
O=C1c2cc(C(O)C3CCS(=O)(=O)CC3)cc(F)c2[C@](OCC2(O)CC2)(c2ccc(Cl)cc2)N1Cc1ncc(Cl)cn1 (stereo partly drawn) [Example 400, 4-{[(1R)-1-(4-chlorophenyl)-2-[(5-chloropyrimidin-2-yl)methyl]-7-fluoro-1-[(1-hydroxycyclopropyl)methoxy]-3-oxo-2,3-dihydro-1H-isoindol-5-yl](hydroxy)methyl}-1λ6-thiane-1,1-dione] |  |  | IC50 [1]: 1.1 µM
CN1CCN(CC(C)(O)c2cc(F)c3c(c2)C(=O)N(Cc2ccc(C#N)cn2)[C@@]3(OCC2(C#N)CC2)c2ccc(Cl)cc2)CC1 (single isomer, unassigned) [Example 279] | 0.57 |  | 
CO[C@]1(c2ccc(Cl)cc2)c2c(F)cc(C(C)(O)C3CCN(C(=O)CN(C)C)CC3)cc2C(=O)N1Cc1ccc(Cl)cn1 (single isomer, unassigned) [Example 299] | 2 |  | 
CCC(O)(c1cc(F)c2c(c1)C(=O)N(Cc1ccc(C#N)cn1)[C@@]2(OCC1(CO)CC1)c1ccc(Cl)cc1)c1cn(C)cn1 (single isomer, unassigned) [Example 337] |  |  | IC50 [4]: 0.058 µM
CCC(O)(CN1CCN(C)CC1)c1cc(F)c2c(c1)C(=O)N(Cc1ncc(Cl)cn1)[C@@]2(OCCO)c1ccc(Cl)cc1 (single isomer, unassigned) [Example 532] |  |  | IC50 [4]: 0.14 µM
Cn1cc(C(C)(O)c2cc(F)c3c(c2)C(=O)N(Cc2ccc(Cl)cn2)[C@@]3(OCC2(C#N)CC2)c2ccc(Cl)cc2)cn1 (single isomer, unassigned) [Example 201] | 0.76 |  | 
CN1CCN(CC(C)(O)c2cc(F)c3c(c2)C(=O)N(Cc2ccc(C#N)cn2)[C@@]3(OCC2(C#N)CC2)c2ccc(Cl)cc2)CC1 (single isomer, unassigned) [Example 278] | 2.6 |  | 
CO[C@]1(c2ccc(Cl)cc2)c2c(F)cc(C(C)(O)c3nccs3)cc2C(=O)N1Cc1ccc(Cl)cn1 (single isomer, unassigned) [Example 166] | 3.8 |  | 
Cn1cc(C(C)(O)c2cc(F)c3c(c2)C(=O)N(Cc2ccc(C#N)cn2)[C@@]3(OCC2(C#N)CC2)c2ccc(Cl)cc2)cn1 (stereo partly drawn) [Example 211, 6-{[(1R)-1-(4-chlorophenyl)-1-[(1-cyanocyclopropyl)methoxy]-7-fluoro-5-[1-hydroxy-1-(1-methyl-1H-pyrazol-4-yl)ethyl]-3-oxo-2,3-dihydro-1H-isoindol-2-yl]methyl}pyridine-3-carbonitrile] |  | 0.36 | 
CO[C@]1(c2ccc(Cl)cc2)c2c(F)cc(C(C)(O)c3cn(C)nn3)cc2C(=O)N1Cc1ccc(Cl)cn1 (single isomer, unassigned) [Example 187] |  | 0.89 | 
Cn1cc(C(C)(O)c2cc(F)c3c(c2)C(=O)N(Cc2ncc(Cl)cn2)[C@@]3(OCC2(CO)CC2)c2ccc(Cl)cc2)cn1 (single isomer, unassigned) [Example 348] | 0.27 |  | 

Structure (SMILES) | IC50 [2] [µM] | IC50 [3] [µM] | also measured
CO[C@]1(c2ccc(Cl)cc2)c2c(F)cc(C(C)(O)c3cn(C)c(C)n3)cc2C(=O)N1Cc1ccc(Cl)cn1 (stereo partly drawn) [Example 161, (3R)-3-(4-Chlorophenyl)-2-[(5-chloropyridin-2-yl)methyl]-6-[1-(1,2-dimethyl-1H-imidazol-4-yl)-1-hydroxyethyl]-4-fluoro-3-methoxy-2,3-dihydro-1H-isoindol-1-one] | 4.3 |  | 
Cc1nc(C(C)(O)c2cc(F)c3c(c2)C(=O)N(Cc2ccc(Cl)cn2)[C@@]3(OCC2(O)CC2)c2ccc(Cl)cc2)cn1C (single isomer, unassigned) [Example 325] | 0.24 |  | 
CCC(O)(c1cc(F)c2c(c1)C(=O)N(Cc1ncc(C#N)cn1)[C@@]2(O[C@H]1CCOC1)c1ccc(Cl)cc1)c1cn(C)cn1 (single isomer, unassigned) [Example 369] |  |  | IC50 [4]: 0.062 µM
CC(O)(c1cc(F)c2c(c1)C(=O)N(Cc1ccc(Cl)cn1)[C@@]2(OCC1(O)CC1)c1ccc(Cl)cc1)c1ncccn1 (single isomer, unassigned) [Example 396] |  | 0.28 | 
CC(O)(c1cc(F)c2c(c1)C(=O)N(Cc1ncc(Cl)cn1)[C@@]2(OCC1(C(N)=O)CC1)c1ccc(Cl)cc1)C1CCC1 (single isomer, unassigned) [Example 403] | 1.2 |  | 
CO[C@]1(c2ccc(Cl)cc2)c2c(F)cc(C(C)(O)C3CN(C(=O)CO)C3)cc2C(=O)N1Cc1ccc(Cl)cn1 (stereo partly drawn) [Example 391, (3R)-3-(4-chlorophenyl)-2-[(5-chloropyridin-2-yl)methyl]-4-fluoro-6-{1-hydroxy-1-[1-(2-hydroxyacetyl)azetidin-3-yl]ethyl}-3-methoxy-2,3-dihydro-1H-isoindol-1-one] |  | 0.66 | 
COc1ccc(CN2C(=O)c3cc(C(C)(O)c4cnn(C)c4)cc(F)c3[C@]2(OCC2(C(N)=O)CC2)c2ccc(Cl)cc2)cn1 (stereo partly drawn) [Example 216, 1-({[(1R)-1-(4-chlorophenyl)-7-fluoro-5-[1-hydroxy-1-(1-methyl-1H-pyrazol-4-yl)ethyl]-2-[(6-methoxypyridin-3-yl)methyl]-3-oxo-2,3-dihydro-1H-isoindol-1-yl]oxy}methyl)cyclopropane-1-carboxamide] |  | 0.28 | 
CO[C@]1(c2ccc(Cl)cc2)c2c(F)cc(C(C)(O)c3ccn(C)n3)cc2C(=O)N1Cc1ccc(Cl)cn1 (single isomer, unassigned) [Example 189] | 1 |  | 
Cn1cc(C(C)(O)c2cc(F)c3c(c2)C(=O)N(Cc2ccc(Cl)cn2)[C@@]3(OCCO)c2ccc(Cl)cc2)cn1 (stereo partly drawn) [Example 213, (3R)-3-(4-chlorophenyl)-2-[(5-chloropyridin-2-yl)methyl]-4-fluoro-6-[1-hydroxy-1-(1-methyl-1H-pyrazol-4-yl)ethyl]-3-(2-hydroxyethoxy)-2,3-dihydro-1H-isoindol-1-one] |  | 0.25 | 
CC(O)(c1cc(F)c2c(c1)C(=O)N(Cc1ccc(Cl)cn1)[C@@]2(OCCO)c1ccc(Cl)cc1)C1CCS(=O)(=O)CC1 (single isomer, unassigned) [Example 314] |  |  | SJSA1 (Protocol B) % at stated concentration (SJSA-1, Protocol B, at 10 μM): 66% at 10
CO[C@]1(c2ccc(Cl)cc2)c2c(F)cc(C(C)(O)c3cnn(CCN(C)C)c3)cc2C(=O)N1Cc1ccc(Cl)cn1 (stereo partly drawn) [Example 191, (3R)-3-(4-Chlorophenyl)-2-[(5-chloropyridin-2-yl)methyl]-6-(1-{1-[2-(dimethylamino)ethyl]-1H-pyrazol-4-yl}-1-hydroxyethyl)-4-fluoro-3-methoxy-2,3-dihydro-1H-isoindol-1-one] |  | 2.5 | 
Cn1cnc(C(C)(O)c2cc(F)c3c(c2)C(=O)N(Cc2ccc(Cl)cn2)[C@@]3(OCC2(O)CC2)c2ccc(Cl)cc2)c1 (single isomer, unassigned) [Example 196] | 0.15 |  | 
CCC(O)(c1cc(F)c2c(c1)C(=O)N(Cc1ccc(Cl)nc1)[C@@]2(OCCO)c1ccc(Cl)cc1)c1cn(C)cn1 (stereo partly drawn) [Example 367, (3R)-3-(4-chlorophenyl)-2-[(6-chloropyridin-3-yl)methyl]-4-fluoro-6-[1-hydroxy-1-(1-methyl-1H-imidazol-4-yl)propyl]-3-(2-hydroxyethoxy)-2,3-dihydro-1H-isoindol-1-one] |  |  | IC50 [1]: 0.11 µM
CO[C@]1(c2ccc(Cl)cc2)c2c(F)cc(C(C)(O)c3cnn(C4CN(C(C)=O)C4)c3)cc2C(=O)N1Cc1ccc(Cl)cn1 (stereo partly drawn) [Example 182, (3R)-6-{1-[1-(1-Acetylazetidin-3-yl)-1H-pyrazol-4-yl]-1-hydroxyethyl}-3-(4-chlorophenyl)-2-[(5-chloropyridin-2-yl)methyl]-4-fluoro-3-methoxy-2,3-dihydro-1H-isoindol-1-one] |  | 0.88 | 
Cn1cc(C(C)(O)c2cc(F)c3c(c2)C(=O)N(Cc2ccc(Cl)cn2)[C@@]3(OCC2(C#N)CC2)c2ccc(Cl)cc2)cn1 (single isomer, unassigned) [Example 202] | 0.11 |  | 
Cn1cc(C(C)(O)c2cc(F)c3c(c2)C(=O)N(Cc2ncc(Cl)cn2)[C@@]3(OCC2(O)CC2)c2ccc(Cl)cc2)cn1 (single isomer, unassigned) [Example 203] | 0.08 |  | 
